# Tests used:
# Format in all cases: in vivo
# [1] = test system: Plasmopara viticola; assay: Preventive grape downy mildew control, detached Emperor leaves (Example 5, Table I); conditions: 100 ppm, sprayed before inoculation
# [2] = test system: Plasmopara viticola; assay: Eradicant grape downy mildew control, detached Emperor leaves (Example 6, Table I); conditions: 48 h, sprayed 2 days after inoculation, read-out: Eradicative Grape Downy Mildew Control, %
# [3] = test system: Plasmopara viticola; assay: Eradicant downy mildew control on Emperor and Carignane grape leaves (Example 9, Table IV)
# [4] = test system: Plasmopara viticola; assay: Preventive grape downy mildew control, detached Cabernet Sauvignon leaves (Example 7, Table II)
# [5] = test system: Phytophthora cryptogea; assay: Safflower crown and root rot control by foliar spray (Example 17, Table XII)
# [6] = test system: Bremia lactucae; assay: Control of lettuce downy mildew (Example 13, Table VIII)
# [7] = test system: Pseudoperonospora cubensis; assay: Foliar spray control of cucumber downy mildew (Example 15, Table X)
# [8] = test system: Phytophthora cryptogea; assay: Snapdragon crown and root rot control, soil drench (Example 16, Table XI); conditions: in vivo
# [9] = test system: Phytophthora cryptogea; assay: Snapdragon crown and root rot control, foliar spray (Example 16, Table XI); conditions: in vivo
# [10] = Carignane leaves, treated 3 days after inoculation
# [11] = Emperor leaves, treated 1 day after inoculation
# [12] = Emperor leaves, treated 2 days after inoculation
Compound,pest or weed control at 100 ppm [1] [%],pest or weed control at 100 ppm [2] [%],other results
"Cc1cccc(C)c1N(C(=O)CCl)C1CC(C)OC1=O (stereo not shown) [B, 3-(N-chloroacetyl-N-2,6-dimethylphenylamino)-5-methyl-gamma-butyrolactone]",80,,pest or weed control at 40 ppm [2]: 95%
CCC(=O)N(c1ccc(Cl)c(Cl)c1)C1CCOC1=O (stereo not shown) [Compound 1],0,,pest or weed control at 40 ppm [2]: 5%
Cc1cccc(C)c1N(C(=O)c1ccc(Cl)c(Cl)c1)C1CCOC1=O (stereo not shown) [Compound 2],,29,
COc1ccccc1N(C(=O)CCl)C1CCOC1=O (stereo not shown) [Compound 3],0,12,
Cc1cccc(C)c1N(C(=O)CCl)C1CCN(C)C1=O (stereo not shown) [Compound 4],,3,
O=C1OCCC1N(C(=O)CCl)c1ccccc1 (stereo not shown) [Compound 5],,0,
CCc1cccc(CC)c1N(C(=O)CCl)C1CCOC1=O (stereo not shown) [Compound 6],0,39,
CC(C)c1ccccc1N(C(=O)CCl)C1CCOC1=O (stereo not shown) [Compound 7],3,,pest or weed control at 16 ppm ([2]; 16 ppm): 17%
CCc1ccccc1N(C(=O)CCl)C1CCOC1=O (stereo not shown) [Compound 8],0,0,
O=C1OCCC1N(C(=O)CCl)c1c(Cl)cccc1Cl (stereo not shown) [Compound 9],0,95,pest or weed control at 40 ppm [2]: 67%
O=C1OCCC1N(C(=O)CCl)c1ccc(Cl)c(Cl)c1 (stereo not shown) [Compound 10],89,39,
O=C1OCCC1N(C(=O)CCl)c1cc(Cl)cc(Cl)c1 (stereo not shown) [Compound 11],45,54,
CCc1cccc(CC)c1N(C(=O)CCl)C1CC(C)OC1=O (stereo not shown) [Compound 12],,87,
CCc1cccc(C)c1N(C(=O)CCl)C1CCOC1=O (stereo not shown) [Compound 13],0,87,
CCc1cccc(C)c1N(C(=O)CCl)C1CC(C)OC1=O (stereo not shown) [Compound 14],,29,
Cc1cccc(C)c1N(C(=O)CBr)C1CCOC1=O (stereo not shown) [Compound 15],,54,
COc1cccc(OC)c1N(C(=O)CCl)C1CCOC1=O (stereo not shown) [Compound 16],,67,

Compound,pest or weed control at 100 ppm [1] [%],pest or weed control at 100 ppm [2] [%],other results
Cc1cccc(C)c1N(C(=O)CCCl)C1CCOC1=O (stereo not shown) [Compound 17],,50,
Cc1cccc(C)c1N(C(=O)CCl)C1CCN(C(C)C)C1=O (stereo not shown) [Compound 18],15,37,
Cc1cccc(C)c1N(C(=O)C(Cl)=C(Cl)Cl)C1CCOC1=O (stereo not shown) [Compound 19],,15,
C=CCN1CCC(N(C(=O)CCl)c2c(C)cccc2C)C1=O (stereo not shown) [Compound 20],,0,
Cc1cccc(C)c1N(C(=O)CCl)C1CCNC1=O (stereo not shown) [Compound 21],,0,
Cc1cc(N2CCC(N(C(=O)CCl)c3c(C)cccc3C)C2=O)ccc1Cl (stereo not shown) [Compound 22],,32,
Cc1cccc(C)c1N(C(=O)c1ccc(Cl)cc1)C1CCN(C)C1=O (stereo not shown) [Compound 23],,0,
Cc1cc(C)c(N(C(=O)CCl)C2CCOC2=O)c(C)c1 (stereo not shown) [Compound 24],,0,
Cc1cccc(C(C)(C)C)c1N(C(=O)CCl)C1CCOC1=O (stereo not shown) [Compound 25],,0,
Cc1ccc(N(C(=O)CCl)C2CCOC2=O)cc1C (stereo not shown) [Compound 26],12,87,
"COC(=O)C(C)N(C(=O)CCl)c1c(C)cccc1C (stereo not shown) [Compound 27, reference compound]",78,96,
O=S(=O)([O-])[O-].[Cu+2] [Cupric sulfate],,,"Eradication ED50 (ppm of applied spray for 50% control) [3, 10]: 380 ppm; Eradication ED90 (ppm of applied spray for 90% control) [3, 10]: 610 ppm; Eradication ED50 (ppm of applied spray for 50% control) [3, 11]: 118 ppm; Eradication ED90 (ppm of applied spray for 90% control) [3, 11]: 289 ppm; Eradication ED50 (ppm of applied spray for 50% control) [3, 12]: 204 ppm; Eradication ED90 (ppm of applied spray for 90% control) [3, 12]: 445 ppm"
"O=C1c2ccccc2C(=O)N1SC(Cl)(Cl)Cl [Folpet, N-(trichloromethylthio)phthalimide, reference compound]",,,Percent Control ([4]; 6.4 ppm): 80.1%; Percent Control ([4]; 16 ppm): 98.8%; Percent Control ([4]; 40 ppm): 97.7%
"COC(=O)C(C)N(C(=O)CCl)c1c(C)cccc1C (stereo not shown) [drawing 3, reference compound]",,,% Control ([5]; 16 ppm): 0%; % Control ([5]; 40 ppm): 0%; % Control ([5]; 100 ppm): 10%
"Manganous ethylene bisdithiocarbamate [Maneb, reference compound]",,,% Dead Seedlings [6]: 14.5%; % Control ([6]; in vivo): 40.6%; % Control ([7]; 16 ppm): 80%; % Control ([7]; 40 ppm): 90%; % Control ([7]; 100 ppm): 98.3%
"{[1,2-ethanediylbis(carbamodithioato)](2-)} manganese mixture with {[1,2-ethanediylbis(carbamodithioato)](2-)}-0 zinc [Mancozeb, reference compound]",,,% Control [8]: 0%; % Control [9]: 0%

# From patent US4141989A, “Fungicidal 3-(N-chloroacetyl-N-arylamino)-gamma-butyrolactone compositions” (Chevron Research Company, priority 1977, dated 1979)
